The values that follow are results of earlier work, collected in US20100055214A1, “METHOD FOR INCREASING BLOOD FLOW TO MAMMALIAN SKELETAL MUSCLE BY ADMINISTERING L-ARGNINE, CRATAEGUS EXTRACT, ARTICHOKE FLAVONOIDS AND GYMNOSTEMMA PENTAPHYLLUM EXTRACT” (H3 FORMULATIONS LTD., priority 2006, published 2010).

The structures appear in SMILES notation.

The conditions of the data set: in vivo.

For `N=C(N)NCCC[C@H](N)C(=O)O` [L-arginine], the NO production result was “increase” and the aerobic exercise capacity entry is on record as “increase aerobic exercise capacity”.
